# In US7323303B2, “Modified β-lactamases and uses thereof” (priority 2003, dated 2008):
# Columns and labels:
# Assay type in all cases: biochemical
# E166Cf enzyme = target: T1, E166Cf enzyme (Bacillus cereus, UniProt P00809, E185C); test: Time-resolved fluorescence of E166Cf enzyme with penicillins and cephalosporins; settings: E166Cf 1.2×10^−7 M
# T1 construct: made in house; host or cells: B. subtilis 1A304 (φ105MU331); then labelled chemically
# T1 sequence (P00809 28-306 E185C): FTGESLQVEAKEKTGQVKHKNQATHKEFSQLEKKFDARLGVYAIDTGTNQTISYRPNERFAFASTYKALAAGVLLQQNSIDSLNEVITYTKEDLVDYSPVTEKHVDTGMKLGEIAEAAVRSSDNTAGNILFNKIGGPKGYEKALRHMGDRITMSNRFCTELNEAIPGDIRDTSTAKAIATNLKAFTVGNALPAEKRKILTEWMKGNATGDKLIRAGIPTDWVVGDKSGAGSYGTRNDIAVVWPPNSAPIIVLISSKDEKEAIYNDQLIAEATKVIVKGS
# Experimental: Fluorescence measurements of the E166Cf enzyme in the presence of penicillin G, penicillin V, ampicillin, cefuroxime, cefoxitin and moxalactam were performed on a Perkin Elmer LS50B spectrofluorometer. For time-resolved fluorescence measurement, excitation and emission wavelengths were set at 494 and 515 nm respectively. Both excitation and emission slit widths were set at 5 nm. All fluorescence measurements were performed at room temperature.
# With penicillin G as substrate, the fluorescence signal of the E166Cf enzyme (1.2×10^−7 M) at 515 nm in 50 mM phosphate buffer (pH 7.0) increases as a function of the antibiotic concentration (FIG. 4). The time-resolved fluorescence signals of the E166Cf enzyme at 515 nm were also measured with various concentrations of penicillin G (FIG. 5). At low antibiotic concentration (1.0×10^−7 and 1.0×10^−6 M), the fluorescence intensity of the E166Cf enzyme increases gradually and then declines. At high antibiotic concentration (1.0×10^−5 and 1.0×10^−4 M), the fluorescence signal increases instantaneously and levels off to a plateau. The fluorescence signal stays at the plateau for a certain length of time and then declines afterwards. Similar results were obtained with penicillin V and ampicillin (FIGS. 6 and 7).
# With cefuroxime, cefoxitin and moxalactam as substrates, the fluorescence intensities of the E166Cf enzyme (1.2×10^−7 M) at 515 nm in 50 mM phosphate buffer (pH 7.0) also increase as a function of antibiotic concentration (FIGS. 8 to 10).
# At high substrate concentration (1.0×10^−5 and 1.0×10^−4 M), the penicillin substrates rapidly occupy the active sites to form the ES complexes, thus switching on the fluorescence of the fluorescein labels instantaneously. […] This can be verified by the fact that the ‘plateau time’ (8 and 22 min for 1.0×10^−5 and 1.0×10^−4 M penicillin G respectively) is consistent with the ‘substrate hydrolysis time’ determined by spectrophotometric assays (7 and 20 min for 1.0×10^−5 and 1.0×10^−4 M penicillin G respectively). When most of the penicillin substrates have been hydrolyzed to carboxylic acids, the fluorescence signal of the labeled enzyme will decline subsequently.
# [1] = target: T2, B. licheniformis penP β-lactamase (Bacillus licheniformis, UniProt P00808); test: Drug screening: E166Cf fluorescence in presence of bacterial β-lactamase culture; design: key: −: Decline in fluorescence signal (presence of beta-lactam hydrolysis); +: No decline in fluorescence signal (absence of beta-lactam hydrolysis); settings: antibiotic 1.0×10^−4 M, E166Cf 1.2×10^−7 M
# T2 construct: made in house; host or cells: B. subtilis 1A304 (φ105MU331); whole culture used, not purified
# Experimental: (§1) The use of the E166Cf enzyme in screening bacterial β-lactamases against various β-lactam antibiotics was investigated. The principle of our method is that when both E166Cf and bacterial β-lactamase are incubated with ‘β-lactamase-unstable’ antibiotics, the fluorescence of the E166Cf enzyme will be suppressed because of the greater catalytic efficiency of the bacterial enzyme. In contrast, when bacterial β-lactamases are screened against ‘β-lactamase-resistant’ antibiotics, the fluorescence of the E166Cf enzyme will be enhanced because of the poor hydrolytic activity of the bacterial enzyme. Thus, any β-lactam antibiotic that causes the labeled enzyme to increase its fluorescence intensity in the presence of bacterial β-lactamases can be used in clinical treatments.
# (§2) The β-lactamase II, penPC β-lactamase and penP β-lactamase were expressed in B. subtilis 1A304 (φ105MU331). These enzymes were prepared according to the procedures described previously (Reference 7: Thomwell, S. J. East, A. K., Errington, J. An efficient expression and secretion system based on Bacillus subtilis phage phi 105 and its uses for the production for B. cereus β-lactamase I. (1993) Gene 133, 47-53) with slight modifications. A bacterial strain was streaked on an agar plate containing 5 μg/ml chloramphenicol, and the plate was incubated at 37° C. for 24 h. A single bacterial colony from the agar plate was inoculated into 100 ml of sterilized BHY medium (37 g/l brain heart infusion and 5 g/l yeast extract) which was then incubated at 37° C. with shaking at 300 rpm overnight. About 7 ml of overnight inoculum was added to a baffled conical flask containing 100 ml of sterilized BHY medium. The inoculated medium was incubated at 37° C. with shaking at 300 rpm. When the optical density of the bacterial culture at 600 nm reached 3.5 to 4.0, the bacterial culture was heated in a water bath at 51° C. for 5 min. Afterwards, the bacterial culture was incubated at 37° C. with shaking at 300 rpm for a further 6 h. The bacterial culture was then harvested and stored at −20° C.
# (§3) Fluorescence measurements of the E166Cf enzyme in the presence of bacterial cultures and β-lactam antibiotics were performed on a FLUOstar microplate reader (BMG Labtechnologies) equipped with two sample injectors. Excitation and emission filters of 485 and 520 nm respectively were used. For B. cereus penPC β-lactamase, B. licheniformis penP β-lactamase and B. cereus β-lactamase II, the labeled enzymes were mixed with the bacterial cultures, and the mixtures were made up to 300 μl with 50 mM phosphate buffer (pH 7.0) in a 96-well microtiter plate (Corning Costar). For the purpose of comparison, B. subtilis cultures, which produced no β-lactamase, were set up as negative controls. For E. coli. TEM-1 β-lactamase, the labeled enzymes were mixed with the bacterial cultures without dilution. E. coli. cultures, which produced no β-lactamase, were set up as negative controls for comparison. The antibiotics were then added to the bacterial samples by the injectors.
# (§4) The results from the time-resolved fluorescence measurements of the labeled enzyme (1.2×10^−7 M) in the presence of various bacterial cultures and β-lactam antibiotics (1.0×10^−4 M) are shown in FIGS. 23 to 26.
# B. cereus β-lactamase II = target: T3, B. cereus β-lactamase II (Bacillus cereus, UniProt P04190); test: as above; design: key: −: Decline in fluorescence signal (presence of beta-lactam hydrolysis); +: No decline in fluorescence signal (absence of beta-lactam hydrolysis); settings: antibiotic 1.0×10^−4 M, E166Cf 1.2×10^−7 M
# T3 construct: made in house; host or cells: B. subtilis 1A304 (φ105MU331); whole culture used, not purified
# Experimental: as §1, §2, §3, §4
# [2] = target: T4, B. cereus penPC β-lactamase (Bacillus cereus, UniProt P00809); test: as above; design: key: −: Decline in fluorescence signal (presence of beta-lactam hydrolysis); +: No decline in fluorescence signal (absence of beta-lactam hydrolysis); settings: antibiotic 1.0×10^−4 M, E166Cf 1.2×10^−7 M
# T4 construct: made in house; host or cells: B. subtilis 1A304 (φ105MU331); whole culture used, not purified
# Experimental: as §1, §2, §3, §4
# T2 sequence (P00808 27-307): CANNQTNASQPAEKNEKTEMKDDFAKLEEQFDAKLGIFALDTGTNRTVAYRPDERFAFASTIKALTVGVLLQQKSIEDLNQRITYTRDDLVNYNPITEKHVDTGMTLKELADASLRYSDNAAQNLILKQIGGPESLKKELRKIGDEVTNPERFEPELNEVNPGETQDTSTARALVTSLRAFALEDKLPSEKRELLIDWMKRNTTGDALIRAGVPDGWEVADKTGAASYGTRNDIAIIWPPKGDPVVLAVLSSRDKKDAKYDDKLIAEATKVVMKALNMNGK
# T4 sequence (P00809 28-306): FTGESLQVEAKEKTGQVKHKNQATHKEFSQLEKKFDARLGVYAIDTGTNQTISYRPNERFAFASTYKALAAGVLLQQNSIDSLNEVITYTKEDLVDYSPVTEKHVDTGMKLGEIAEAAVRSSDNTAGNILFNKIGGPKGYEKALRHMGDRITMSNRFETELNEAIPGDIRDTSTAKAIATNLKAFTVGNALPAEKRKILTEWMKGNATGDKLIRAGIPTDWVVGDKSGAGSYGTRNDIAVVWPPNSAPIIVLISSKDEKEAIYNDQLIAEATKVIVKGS
# T3 sequence (P04190 31-257): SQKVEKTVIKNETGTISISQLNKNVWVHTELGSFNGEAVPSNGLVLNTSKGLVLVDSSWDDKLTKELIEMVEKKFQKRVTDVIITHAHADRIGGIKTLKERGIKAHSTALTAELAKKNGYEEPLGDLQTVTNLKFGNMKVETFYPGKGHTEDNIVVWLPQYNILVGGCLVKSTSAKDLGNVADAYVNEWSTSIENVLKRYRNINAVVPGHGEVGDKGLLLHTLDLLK
compound,measurement,setting,value
"CC1(C)S[C@@H]2[C@H](NC(=O)Cc3ccccc3)C(=O)N2[C@H]1C(=O)O [Penicillin G, penicillin G]",plateau time of fluorescence signal,E166Cf enzyme; 1.0×10^−4 M antibiotic,22 min
same,plateau time of fluorescence signal,E166Cf enzyme; 1.0×10^−5 M antibiotic,8 min
same,fluorescence signal of E166Cf (beta-lactam hydrolysis),[1],−
same,fluorescence signal of E166Cf (beta-lactam hydrolysis),B. cereus β-lactamase II,−
same,fluorescence signal of E166Cf (beta-lactam hydrolysis),[2],−
